Test results published in US6440899B1, “Cyclohexenonedioxothiochromanoyl derivatives” (BASF Aktiengesellschaft, priority 1998, dated 2002).

Columns and labels:
Assay in all cases: greenhouse post-emergence herbicidal test
Assay type in all cases: in vivo
Conditions in all cases: applied post-emergence, rates of application of 0.5 and 0.25 kg/ha, respectively
Chenopodium album = tested on: Chenopodium album
Source text: (§1) The seeds of the test plants were sown separately for each species. For the post-emergence treatment, the test plants were first grown to a height of 3 to 15 cm, depending on the plant habit, and only then treated with the active compounds which had been suspended or emulsified in water. For this purpose, the test plants were either sown directly and grown in the same containers, or they were first grown separately as seedlings and transplanted into the test containers a few days prior to treatment. The rate of application for the post-emergence treatment was 0.5 or 0.25 kg/ha of a.s. (active substance). Depending on the species, the plants were kept at 10-25° C. or 20-35° C. The test period extended over 2 to 4 weeks. During this time, the plants were tended, and their response to the individual treatments was evaluated. Evaluation was carried out using a scale from 0 to 100. 100 means no emergence of the plants, or complete destruction of at least the aerial parts, and 0 means no damage, or normal course of growth. The plants used in the greenhouse experiments belonged to the following species: [table]

Setaria faberi = tested on: Setaria faberi
Source text: as §1

Echinochloa crus-galli = tested on: Echinochloa crus-galli
Source text: as §1

Sinapis alba = tested on: Sinapis alba
Source text: as §1

Galium aparine = tested on: Galium aparine
Source text: as §1

Solanum nigrum = tested on: Solanum nigrum
Source text: as §1

Setaria viridis = tested on: Setaria viridis
Source text: as §1

Measured: herbicidal activity

Cc1c(C(=O)C2=C(Cl)C(C)(C)C(=O)C(C)(C)C2=O)ccc2c1S(=O)(=O)CCS2(=O)=O [Compound 4.1, 1-Chloro-2-[(8-methyl-2,3-dihydro-1,1,4,4-tetraoxobenz[1,4]dithiyn-7-yl)carbonyl]-4,4,6,6-tetramethyl-1-cyclohexene-3,5-dione]
very good activity: all assays above
